One assay relates to platelets. The assay is described as follows: ADP induced platelet aggregation-disaggregation in platelet rich plasma. The class given is cell-based, rabbit. The following applies: for Control disaggregation: 10 minutes after ADP; for Control disaggregation / Control aggregation / Latency period: Mean ± SD (n = 6); for Control aggregation: ADP 10 μM. The method, then:
Platelet enriched rabbit plasma has been used to assess the platelet anti-aggregating and disaggregating properties of Ajuga reptans Extracts compared with teupolioside and isoteupolioside. Platelet rich plasma has been obtained from rabbit venous blood by mixing it with a 3.8% sodium citrate solution (9:1 v/v). The solution has then been centrifuged at 460×g for 20 minutes. The supernatant has been collected and immediately used for the aggregation assays. Platelet aggregation has been recorded using a Chronolog “Ionised calcium platelet aggregometer” (Chrono-log Co., USA). All measurements have been performed at 37° C. with continuous stirring. One milliliter of the platelet suspension (in the presence or absence of the test substances) has been added to the cuvettes and incubated for five minutes to equilibrate the cells to 37° C. Then 10 μl of a solution of ADP (final concentration—10 μM) has been added and the luminous transmittance continuously recorded. The results are expressed as the DT/DTK ratio, where DTK and DT are the luminous transmittance values, in the absence and presence of extract respectively.
Platelet disaggregation (the disappearance of pre-formed aggregates) has been determined using the same luminous transmittance curve 10 minutes following the addition of ADP. The results are expressed as the DR/DRk ratio, where DRk and DR, are the luminous transmittance in the absence and presence of extract. The test substances, diluted in physiological solution (isotonic saline) (pH 7.4) are pre-incubated with the platelet rich plasma (1:10 v/v) for 5-40 minutes. The aggregation measurements have then been performed. Physiological solution carrier has been added to the control samples (1:10 v/v).

Assay [1] has as its target T1, 5 alpha reductase, type I (Homo sapiens, UniProt P18405).
T1 construct: made in house; host or cells: genetically modified yeast
T1 sequence (P18405 1-259): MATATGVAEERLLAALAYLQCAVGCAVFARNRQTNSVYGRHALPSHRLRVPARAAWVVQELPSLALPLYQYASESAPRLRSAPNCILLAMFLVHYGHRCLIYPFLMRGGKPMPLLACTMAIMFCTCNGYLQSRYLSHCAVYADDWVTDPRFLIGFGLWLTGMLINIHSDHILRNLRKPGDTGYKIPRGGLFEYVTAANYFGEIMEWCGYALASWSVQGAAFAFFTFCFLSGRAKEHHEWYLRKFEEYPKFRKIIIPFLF
Nature of the assay: Type I 5 alpha reductase inhibition ([14C] testosterone conversion). Type of assay: biochemical. The method, then: Determination of the 5 alpha reductase inhibitory activities by Ajuga reptans extracts in comparison to Serenoa repens extracts. Said determination has been performed using enzymes (5 alpha reductase, type I and type II) produced by genetically modified yeast. Enzyme activities have been determined in the presence of Ajuga reptans extracts, teupolioside, isoteupolioside and Serenoa repens extracts.
Type I 5 alpha reductase activity has been assayed by incubating the enzyme in 0.1 M Tris-citrate buffer (pH 7.0), containing 5 μM [^14C] radio-labelled testosterone (Amersham, Sweden) and 5 mM NADPH (Sigma) in a final volume of 5 ml. The solution thus obtained has been incubated for 1 hour at 37° C.
In both assays, the steroids have been extracted using 5 ml of methylene chloride. The extracts have then been dried under a stream of nitrogen and the dried residues obtained have been dissolved in 20 μl of a chloroform-methanol mixture (2:1 v/v). […] For quantification of the results, the spots have been scraped from the TLC plate and extracted with 2 ml of ethyl acetate. The extracts obtained have been analysed, using scintillation fluid, with the aid of a Wallach β-counter. The enzyme activity has been calculated from the percentage conversion (C %) of the substrate into final product: C%=[counted product/(counted substrate+product)]×100.

The next assay deals with A549 cells (ATCC-CCL185). Nature of the assay: BSO-induced oxidative stress, ROS by DCF fluorimetry in A549 cells. The class given is cell-based, human. The following applies: 20 μM; with BSO; control without BSO = 100. How it is done:
10×10^5 A549 cells (ATCC-CCL185) have been seeded into wells with 3 ml of DMEM/F12K HAM medium (Sigma-Aldrich) with 10% FCS and incubated at 37° C. in a 5% CO2, water vapour saturated atmosphere. After 24 hours the culture medium is replaced by medium supplemented with BSO, which is left in contact with the cells for 20 hours. The medium is once again replaced with medium containing BSO in the presence or absence of the test compound. After 4 hours, quantitative measurement of the ROSs (hydroxyl radicals) is performed by washing the cells with phosphate buffer and then incubating them with 30 μM DCF-DA in buffer solution. At the end of a 15 minute incubation, excess DCF-DA is removed from the cells by washing, prior to measuring the fluorescence emitted.
Antioxidant activity measurements are performed using a (Hitachi F3010) spectrophotometer with excitation at 488 nm and measuring emission at 525 nm, and values are expressed in pmoles, by extrapolation from the calibration curve constructed using known quantities of DCF, and in relation to total cellular protein. Values are thus expressed in % ages with respect to the ROS content of the cells not subjected to treatment with BSO (control) to which are assigned a value of 100.
The Extracts 1 and 2, Teupolioside and Ascorbic Acid were solubilized in phosphate buffer 10 mM at pH 7.4, whereas trolox was solubilized in 0.1% of dimethylsulphoxide and culture medium.

Assay [2] in a line: Superoxide anion chemiluminescent assay (hypoxanthine/xanthine oxidase, Lumimax kit). Type of assay: biochemical. The settings on record: means of 6 independent assays. The source says:
(§1) The superoxide anion has been measured by a chemiluminescent assay based on the hypoxanthine (HPX)/xanthine oxidase (XOD) reaction using the Lumimax Superoxide Anion Detection Kit (Stratagene, La Jolla, Calif., USA) and following the manufacturer's instructions. Hydroxyl radical scavenger activity has been measured by means of the Fenton reaction for the production of hydroxyl radicals and chemiluminescent dosage (using a Victor^3 chemiluminometer, Wallac, Finland) with luminol. Peroxynitrite ions have been determined by means of dosage with a spontaneous generator of peroxynitrites (3-morpholinosidnonimine hydrochloride; SIN-1) and a stable reagent for the nitroxyl ions (2-(4-carboxyphenyl)-4,4,5,5-tetramethylimidazoline-1-oxyl-3-oxide potassium salt PTIO spin trap) then dosed by means of electron spin resonance (ESR) using a Nippon Denshi JES-FR30. Lipid peroxidation has been generated using Fe^2+ induced-oxygen reactive species, and detected using thiobarbituric acid in accordance with Buege, J A & Aust, S D: Microsomal lipid peroxidation (Methods Enzymol.
(§2) The results are expressed as the concentration inhibiting 50% of activity (IC50), means of 6 independent assays.

Assay [3] is described as follows: Peroxynitrite scavenging (SIN-1, PTIO spin trap, ESR). The class given is biochemical. The settings on record: means of 6 independent assays.
Text: as §1, §2

Another assay has as its system 3T3 fibroblasts. The assay is described as follows: BSO-induced oxidative death of 3T3 fibroblasts (MTT). The class given is cell-based, BALB/c mouse. The settings on record: 20 μM; BSO 200 μM, 24 hours.

Like-named read-outs stand apart in the source and are kept apart here.

The IC50 is the concentration that inhibits the measured activity by half.

`CC1OC(OC2C(O)C(COC(=O)C=Cc3ccc(O)c(O)c3)OC(OCCc3ccc(O)c(O)c3)C2O)C(OC2OC(CO)C(O)C(O)C2O)C(O)C1O` (centres unmarked) [Isoteupolioside, isoteupolioside]: the “Platelet disaggregation test, activity in words” value in the assay on platelets is reported as “activity similar to teupolioside”. The molecule also showed a 50% inhibitory concentration (IC50) in assay [1] of 20.3 µM.

On to `C[C@@H]1O[C@@H](O[C@@H]2[C@@H](O)[C@H](OCCc3ccc(O)c(O)c3)O[C@H](CO)[C@H]2OC(=O)/C=C/c2ccc(O)c(O)c2)[C@H](O[C@@H]2O[C@H](CO)[C@H](O)[C@H](O)[C@H]2O)[C@H](O)[C@H]1O` [Teupolioside, teupolioside], for which the “Effect on platelet aggregation, in words” value in the assay with platelets is given as “modest inhibiting effect on platelet aggregation, only at 1 mg/ml concentration”. Also, the Control disaggregation was 105 ± 5 with platelets (0.001 mg/ml), 113 ± 10 in the assay with platelets (0.01 mg/ml), 124 ± 15 with platelets (0.1 mg/ml) and 100 ± 10 in the assay with platelets (1.0 mg/ml). Moreover, the Control aggregation in the assay with platelets (0.001 mg/ml) is listed as 121 ± 6; in the assay on platelets (0.01 mg/ml) it was 110 ± 10; in the assay on platelets (0.1 mg/ml), 114 ± 10; with platelets (1.0 mg/ml), 68 ± 9. Besides, the Latency period was found to be 101 ± 3 with platelets (0.001 mg/ml), 95 ± 5 in the assay on platelets (0.01 mg/ml), 94 ± 4 in the assay on platelets (0.1 mg/ml) and 66 ± 10 in the assay with platelets (1.0 mg/ml). In addition, the concentration for half-maximal inhibition (IC50) in assay [1] (first column of Table 9, pH 7.0, 5 μM testosterone, read-out: Type I 5 alpha reductase inhibition (IC50) (converted)) was 21.6 µM. In the assay on A549 cells (ATCC-CCL185), the “% ROS in picomoles” value turned out to be 135 ± 7 %. For the same molecule, the “Superoxide radical (IC50)” value in assay [2] was found to be 1 µg/mL. Further, in assay [3], the “Peroxynitrite radical (IC50)” value was determined as 1.8 µg/mL. Also, the “% survived cells” value with 3T3 fibroblasts is 75.5%.
